Reference: patent US8299040B2, “Methods for treating cancer targeting transglutaminase” (Board of Regents, The University of Texas System, priority 2006, dated 2012)

Key:
TG2 = TG2 protein expression in MDA-Panc28 cells (western blot); assay type: cell-based, human; details: 48 h
Method: (A) Cells at 80% confluence were treated with 1 μM, 2 μM or 4 μM rottlerin. After 48 h of treatment, the cells were lysed and cell lysates were fractionated by sodium dodecyl sulfate polyacrylamide gel electrophoresis (SDS-PAGE) and transferred onto nitrocellulose membrane to determine PKCδ and TG2 protein expression by western blot analysis. The membrane was stripped and reprobed with an anti-β-actin antibody to confirm equal loading of protein in each lane. (B) Total RNA was extracted, and transcript levels of TG2 and β-actin were determined by RT-PCR analysis as described in Materials and Methods. Relative expression levels were determined by densitometry as compared with β-actin. Experiments were repeated at least three times.
(§1) After treatment, the cells were collected and centrifuged, and whole-cell lysates were obtained using a lysis buffer. Total protein concentration was determined using a DC protein assay kit (Bio-Rad, Hercules, Calif., USA). […] Mouse anti-β-actin and donkey anti-mouse secondary antibody were purchased from Sigma Chemical (St. Louis, Mo., USA) so that β-actin expression could be monitored to ensure equal loading of proteins. […] The blots were visualized with a Fluor Chem 8900 imager and quantified by a densitometer using the Alpha Imager application program (Alpha Innotech). […]

[1] = system: MDA-Panc28, Capan-2, Bx-PC3, Panc1 and MIAPaCa cells; experiment: LC3-II accumulation (autophagy) in pancreatic cancer cell lines, western blot; assay type: cell-based, human; details: 4 μM for 48 h
Method: (A) A panel of pancreatic cancer cell lines including MDA-Panc28, Capan-2, Bx-PC3, Panc1 and MIAPaCa cells were treated with Rottlerin (4 μM) for 48 h for the detection of LC3-II and TG2 expression by western blot. (B) MCF-7 cell line was also tested for LC3-II and TG2 expression by western blot. (C) Expression of TG2 in MDA-Panc28 cells was determined upon exposure to different treatments (D) Detection of autophagolysosomes; MDA-Panc28 cells were treated with either control siRNA, Rottlerin or TG2 siRNA for 48 h. Photomicrographs show morphological changes of the cells by phase contrast microscopy (left panels); acridine orange staining of the acidic vesicular organelles by fluorescent microscopy (center panels) and the localization LC3-II at autophagosomes in cells after transfection with GFP-LC3 plasmid (right panels). […]
as §1

PKCδ = target: T1, PKCδ (Homo sapiens, UniProt Q05655); experiment: PKCδ protein expression in MDA-Panc28 cells (western blot); assay type: cell-based; details: 48 h
T1 construct: endogenous in cells; host or cells: MDA-Panc28
T1 sequence (Q05655 whole entry): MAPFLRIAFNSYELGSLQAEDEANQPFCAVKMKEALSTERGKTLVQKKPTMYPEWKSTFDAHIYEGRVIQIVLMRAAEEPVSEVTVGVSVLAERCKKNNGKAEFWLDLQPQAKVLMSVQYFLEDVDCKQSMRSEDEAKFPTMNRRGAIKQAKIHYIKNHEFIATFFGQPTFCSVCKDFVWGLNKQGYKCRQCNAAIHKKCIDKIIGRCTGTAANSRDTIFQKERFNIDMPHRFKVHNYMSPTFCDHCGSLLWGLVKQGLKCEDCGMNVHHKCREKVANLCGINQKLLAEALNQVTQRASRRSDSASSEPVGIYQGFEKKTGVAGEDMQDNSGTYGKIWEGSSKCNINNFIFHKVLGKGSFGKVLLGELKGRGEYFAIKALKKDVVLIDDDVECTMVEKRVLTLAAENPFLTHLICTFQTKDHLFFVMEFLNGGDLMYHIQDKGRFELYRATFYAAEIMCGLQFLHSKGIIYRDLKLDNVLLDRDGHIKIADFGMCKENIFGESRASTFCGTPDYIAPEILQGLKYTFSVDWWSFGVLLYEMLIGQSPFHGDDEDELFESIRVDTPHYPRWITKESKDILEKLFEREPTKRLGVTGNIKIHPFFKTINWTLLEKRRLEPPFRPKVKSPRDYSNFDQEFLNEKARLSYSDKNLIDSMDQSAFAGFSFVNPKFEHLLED
Method: (A) Cells at 80% confluence were treated with 1 μM, 2 μM or 4 μM rottlerin. After 48 h of treatment, the cells were lysed and cell lysates were fractionated by sodium dodecyl sulfate polyacrylamide gel electrophoresis (SDS-PAGE) and transferred onto nitrocellulose membrane to determine PKCδ and TG2 protein expression by western blot analysis. […] Experiments were repeated at least three times.
After treatment, the cells were collected and centrifuged, and whole-cell lysates were obtained using a lysis buffer. Total protein concentration was determined using a DC protein assay kit (Bio-Rad, Hercules, Calif., USA). […] Aliquots containing 30 μg of total protein from each sample were subjected to sodium dodecyl sulfate-polyacrylamide gel electrophoresis (SDS-PAGE) with a 4-20% gradient and electrotransferred to nitrocellulose membranes. The membranes were blocked with 5% dry milk in tris-buffered saline-tween 20 (TBST), probed with primary antibodies diluted in TBST containing 2.5% dry milk and incubated at 4° C. overnight. […] Mouse anti-β-actin and donkey anti-mouse secondary antibody were purchased from Sigma Chemical (St. Louis, Mo., USA) so that β-actin expression could be monitored to ensure equal loading of proteins. […] The blots were visualized with a Fluor Chem 8900 imager and quantified by a densitometer using the Alpha Imager application program (Alpha Innotech). […]

[2] = system: Bx-PC3, MIAPaCa, MDA-Panc28, Panc1 and Capan-2 cells; experiment: Growth inhibition in pancreatic cancer cell lines; assay type: cell-based, human
Method: (A) Different pancreatic cancer cell lines were treated with rottlerin (4 μM) for 48 h, and viable cells were detected by proliferation assay using Alamar Blue staining. Bars represent growth inhibition after normalizing untreated cells to 100%. (B) Growth of the indicated cell lines after treatment with rottlerin (4 μM) for 48 and 96 h.
Pancreatic cell lines MDA-Panc28, Capan-2, Bx-PC3, Panc1 and MIAPaCa were provided by Dr. Shrikant Reddy (M. D. Anderson Cancer Center). MDA-Panc28 and Bx-PC3 cell lines were maintained in RPMI-1640 medium supplemented with 10% fetal calf serum. Panc1 and MIAPaCa cell lines and Capan-2 cells were maintained in DMEM and McCoy's 5A, respectively. All media were supplemented with 10% fetal calf serum. For the cell proliferation experiments, cells were seeded at a density of 1-2×10^5 cells in T-25 tissue culture flasks. Twenty-four hours after the seeding, cells were treated with various concentrations of rottlerin for the indicated periods of time. Adherent cells were collected by trypsinization, and cell numbers were determined using a Neubauer cell counting chamber. All experiments were replicated at least two times.

CC(=O)c1c(O)c(C)c(O)c(Cc2c(O)c3c(c(C(=O)/C=C/c4ccccc4)c2O)OC(C)(C)C=C3)c1O [rottlerin]
inhibition of TG2 protein expression (TG2; 1 μM): 44% | inhibition of TG2 protein expression (maximum) (TG2; 4 μM): 94% | endogenous LC3-II accumulation [1]: significant increase in endogenous LC3-II accumulation | inhibition of PKCδ protein expression (PKCδ; 2 μM): 72% | inhibition of PKCδ protein expression (PKCδ; 4 μM): 94% | growth inhibition ([2]; 4 μM for 48 h, five cell lines): induced growth inhibition in all five cell lines tested | time course of growth inhibition ([2]; 4 μM, 48 and 96 h, MDA-Panc28, Bx-PC3, MIAPaCa): time-dependent inhibition in cell growth of all three
